Experimental data from the OPERA property sets (Mansouri et al. 2018).
Where a SMILES comes first, the peptide text is derived from it.

| SMILES | logP |
| --- | --- |
| COc1ccc(-c2cn3cc(N)cnc3n2)c(OC)c1 | 1.68 |
| N#Cc1cccc(Cn2cnc3ccccc32)c1 | 2.47 |
| O=C(NCCCCCOCCCN1CCOCC1)NC12CC3CC(CC(C3)C1)C2 | 2.7 |
| O=C1N=C(N2CCOCC2)CN1c1ccc(Cl)c(Cl)c1 | 1.9 |
| CCNC(=NC#N)NS(=O)(=O)c1cnccc1NC1CCCCCCC1 | 2.05 |
| COC(=O)C(C)NP(=O)(OCC1C=CC(n2cc(C)c(=O)[nH]c2=O)O1)Oc1ccc(C(C)=O)cc1 (centres undefined) | 0.9 |
| Clc1cccc(N2CCN(CCn3nc4ccccc4n3)CC2)c1 | 4.1 |
| CON(C)C(=O)c1cn2c(C)c(C)nc2c2c1CCC(c1ccccc1)O2 (centres undefined) | 3.6 |
| COc1ccc(F)cc1CNC1CCCNC1c1ccccc1 (centres undefined) | 3.5 |
| Cc1[nH]c2ccccc2c1Cc1n[nH]c(=S)n1-c1ccccc1 | 2.55 |
| CCCCCCCCCCCCNCCO | 4.51 |
| Cc1coc2c(C)c3oc(=O)ccc3cc12 | 2.81 |
| CCCCCCCCNC(=O)N1C(=O)N(C)CC1O (centres undefined) | 3.46 |
| CC(C)CC(N)C(=O)NC(C)C(=O)NC(CC(C)C)C(=O)O (stereo not drawn) (H-Leu-Ala-Leu-OH; configuration not given here) | -2.03 |
| CCN(CC)c1ccc(-n2c(C(F)(F)F)nn(C)c2=S)cn1 | 3.14 |
| CCCc1nc(NCC)nc(N2CCOCC2)n1 | 2.23 |
| Cc1cc(CCCCCCCOc2ccc(C3=NCCO3)cc2)on1 | 4.79 |
| CC(C)CC(N)C(=O)NC(CC(C)C)C(=O)NC(C)C(=O)NC(Cc1ccccc1)C(=O)O (centres undefined) (H-LLAF-OH; configuration not given here) | -1 |
| CCN(CC)C(=O)COC(=O)c1cc(S(N)(=O)=O)c(Cl)cc1NCc1ccco1 | 2.45 |
| Nc1nnnn1-c1ccccc1 | 0.69 |
| N=C1C=CC(=C(c2ccc(N)cc2)c2ccc(N)cc2)C=C1 | -0.21 |
| O=C1C=C(N2CCOCC2)CN1c1ccc(F)c(Cl)c1 | 2.2 |
| CCCCOc1cccc(NC(=O)OCCN2CCCCC2)c1 | 5.04 |

| SMILES | logP |
| --- | --- |
| C=CCNC(=O)c1[nH]cc(-c2ccc(Cl)cc2)c1N1CCOCC1 | 3.7 |
| CCN(CC)CC(=O)NCC(=O)Nc1c(C)cccc1C | 2.2 |
| CCCCCCC(=O)Oc1ccc2c3c1OC1C(OS(=O)(=O)O)C=CC4C(C2)N(C)CCC341 (centres undefined) | 0.36 |
| O=C(O)Cc1cc(O)ccc1Nc1c(Cl)cccc1Cl | 3.94 |
| Cc1cc2c(o1)c(C)c(C)c1ccc(=O)oc12 | 3.26 |
| CCCc1nc(NCC)nc(N2CCCCC2)n1 | 3.34 |
| CCCc1nc(N)nc(N2CCCCC2)n1 | 2.55 |
| CC(c1ccccc1)N1CC(N2CCOCC2)=NC1=O (centres undefined) | 0.8 |
| O=Cc1ccc(Cl)cc1O | 2.49 |
| CCCNC(=O)CCC(=O)NCc1c(O)c(=O)cc(C)n1C | -0.7 |
| CN1CCN(Cc2cnccc2Cl)C1=N[N+](=O)[O-] | 0.26 |
| CC(=O)OCc1ccccn1 | 0.39 |
| Nc1nnnn1-c1ccc(Cl)cc1 | 1.41 |
| CC1CCCCN1CC1CN=C(N)O1 (centres undefined) | 0.73 |
| COc1cc2ncnc(Nc3cccc(I)c3)c2cc1OC | 3.65 |
| Fc1ccccc1CNc1[nH]cnc2ncnc1-2 | 2.27 |
| NC(Cc1ccccc1)C(=O)NC(Cc1ccccc1)C(=O)NCC(=O)NC(Cc1ccccc1)C(=O)O (centres undefined) (H-FFGF-OH; configuration not given here) | 0.17 |
| c1nc(N2CCCCC2)c2[nH]cnc2n1 | 2.11 |
| COC(=O)c1ccc(C(=O)OC)c(N)c1 | 2.28 |
| Nc1nnnn1-c1ccccc1Cl | 0.87 |
| CCC(C)C(N)C(=O)NC(C)C(=O)NC(Cc1ccc(O)cc1)C(=O)NC(Cc1c[nH]c2ccccc12)C(=O)NCC(=O)O (centres undefined) (H-IAYWG-OH; configuration not given here) | -1.47 |
| OCCN1CCN(CCCOn2nnc3ccccc32)CC1 | 0.43 |
| O=C1Nc2ccc(Cl)cc2C(c2ccccc2F)=NC1O (centres undefined) | 1.81 |

| SMILES | logP |
| --- | --- |
| NC1=NC(C2OCCc3ccccc32)CS1 (centres undefined) | 1.79 |
| Cc1nc2ccccc2c(=O)n1CCC(=O)O | 0.93 |
| COc1cc2ncnc(Nc3ccc(F)cc3)c2cc1OC | 2.87 |
| CSCCC(NC(=O)C(Cc1ccccc1)NC(=O)CNC(=O)CNC(=O)C(N)Cc1ccc(O)cc1)C(=O)O (centres undefined) | -1.39 |
| CC(C)CC(NC(=O)C(N)CO)C(=O)O (stereo not drawn) (H-Ser-Leu-OH; configuration not given here) | -2.49 |
| S=C=NCCCCCCCCc1ccccc1 | 5.81 |
| Nc1nc(N)c2c(F)cccc2n1 | 1.19 |
| CCCC(=O)NCCCCCN(O)C(=O)CCC(=O)NCCCCCN(O)C(=O)CCC(=O)NCCCCCN(O)C(C)=O | 0.42 |
| Nc1nc(F)nc2c1ncn2[C@@H]1O[C@H](CO)[C@@H](O)[C@H]1O | -0.8 |
| Cc1cccc(Cc2cnc[nH]2)c1C | 2.68 |
| CNC(C)Cc1ccc(F)cc1 (centres undefined) | 2.15 |
| COc1c2c(cc3c1-c1ccc(OC)c(=O)cc1C(NC(C)=O)CC3)OCO2 (centres undefined) | 1.6 |
| CC(C)C1(C)N=C(c2ncc(Br)cc2C(=O)O)NC1=O (centres undefined) | 1.19 |
| Clc1ccc(-c2noc(N3CCOCC3)n2)cc1 | 3.1 |
| CC1CC(=O)NN=C1c1ccc(-n2cnc3c2CCCC3)cc1 (centres undefined) | 2.52 |
| O=C(Nc1ccccc1)c1ccccc1I | 2.85 |
| CCOC(=O)C(CCc1ccccc1)NC(C)C(=O)N1N=C(C(C)(C)C)SC1C(=O)O (centres undefined) | 1.62 |
| COc1ccc(-n2nnnc2N)cc1 | 0.85 |
| CCC(CC)C(=O)NS(=O)(=O)c1ccc(C(F)(F)F)cc1[N+](=O)[O-] | 3.57 |
| Nc1ccc2nc3ccccn3c2n1 | 1.38 |
| O=[N+]([O-])c1nccn1COCC=CCO | -0.28 |
| CCc1cccc2nc(N)nc(N)c12 | 1.69 |
| CC(C)CC(NC(=O)C(CC(C)C)NC(=O)C1CCCN1)C(=O)O (stereo not drawn) (H-Pro-Leu-Leu-OH; configuration not given here) | -1.64 |

| SMILES | logP |
| --- | --- |
| O=C(NP(=O)(N1CC1)N1CC1)c1ccc(F)cc1 | 0.86 |
| CN(C)C(C)(C)O | 0.2 |
| CC(C)CC(N)C(=O)NC(CC(C)C)C(=O)NC(Cc1ccc(O)cc1)C(=O)O (stereo not drawn) (H-Leu-Leu-Tyr-OH; configuration not given here) | -1.34 |
| O=C1C=C(N2CCCCCC2)CN1c1ccc(Cl)cc1 | 3.4 |
| CC(C)(C)c1ccc(C(O)CCCN2CCC(C(O)c3ccccc3)CC2)cc1 (centres undefined) | 4.06 |
| CNC=C1c2cccc(O)c2C(=O)c2c(O)cccc21 | 3.55 |
| CN1CC(O)N(C(=O)NCCCl)C1=O (centres undefined) | 0.71 |
| COCc1ccc(CC#N)cc1 | 1.23 |
| CCN(CCO)CCCOc1cc2ncnc(Nc3cc(CC(=O)Nc4cccc(F)c4F)[nH]n3)c2cc1OC | 3.5 |
| CCCC1C(=O)N(CCN(C)C)c2cccc(C(F)(F)F)c2CC1c1ccc(OC)cc1 (centres undefined) | 6.9 |
| CCCCC(=O)OCC(=O)C1(O)Cc2c(O)c3c(c(O)c2C(OC2CC(N)C(O)C(C)O2)C1)C(=O)c1c(OC)cccc1C3=O (centres undefined) | 2.56 |
| CCOc1cccc(COC(=O)C2C(C=C(C)C)C2(C)C)c1 (centres undefined) | 5.87 |
| CC(=NNC(=O)c1ccc(Br)cc1)c1cnccn1 | 2.9 |
| COc1ccc(O)c(C2=NC(C(=O)O)CS2)c1 (centres undefined) | 1.6 |
| CNS(=O)(=O)c1nnc(NC(C)=O)s1 | 0.49 |
| Cc1ncc([N+](=O)[O-])n1CCN=[N+]=[N-] | 0.76 |
| N#CC(C#N)=NNc1cccc(Cl)c1Cl | 3.85 |
| O=C(NS(=O)(=O)c1cnccc1NC1CCCCCC1)N1CCCCC1 | 4.14 |
| COc1cc2ncnc(Nc3ccccc3F)c2cc1OC | 2.2 |
| Cc1cc2c(o1)c(C)cc1c(C)cc(=O)oc12 | 3.28 |
